According to ChEMBL document CHEMBL1177687, “Synthesis and CYP24A1 inhibitory activity of N-(2-(1H-imidazol-1-yl)-2-phenylethyl)arylamides” (Bioorg Med Chem, 2010):

Biological target: T1, 1,25-dihydroxyvitamin D(3) 24-hydroxylase, mitochondrial (Homo sapiens, UniProt Q07973)
T1 sequence (Q07973 whole entry): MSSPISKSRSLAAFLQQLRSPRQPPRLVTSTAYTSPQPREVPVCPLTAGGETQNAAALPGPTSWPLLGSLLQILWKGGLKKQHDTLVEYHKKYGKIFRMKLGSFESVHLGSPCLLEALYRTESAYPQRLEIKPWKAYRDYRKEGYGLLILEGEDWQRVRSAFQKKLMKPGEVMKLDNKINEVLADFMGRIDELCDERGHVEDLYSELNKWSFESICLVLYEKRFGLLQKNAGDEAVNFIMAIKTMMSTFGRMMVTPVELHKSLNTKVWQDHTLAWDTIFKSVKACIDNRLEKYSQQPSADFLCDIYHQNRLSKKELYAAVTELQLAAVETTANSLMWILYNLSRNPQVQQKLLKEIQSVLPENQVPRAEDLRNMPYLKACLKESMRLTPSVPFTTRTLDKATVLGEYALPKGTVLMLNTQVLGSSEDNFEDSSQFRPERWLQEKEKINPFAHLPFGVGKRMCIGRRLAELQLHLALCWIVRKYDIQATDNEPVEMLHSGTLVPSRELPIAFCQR
Assay: Inhibition of human recombinant CYP24A1 expressed in chinese hamster V79 cells using [3H-1-beta]calcitriol after 60 mins by scintillation counting
Type: ADME, cell-based

Row | SMILES | IC50 [µM]
1 | O=C(NCC(c1ccc(Cl)cc1)n1ccnc1)c1cc2ccccc2o1 (centres undefined) | 10.6
2 | O=C(NCC(c1ccccc1)n1ccnc1)c1ccc(Br)cc1 (centres undefined) | 23
3 | O=C(NCC(c1ccccc1)n1ccnc1)c1ccc(Cc2ccccc2)cc1 (centres undefined) | 72
4 | O=C(NCC(c1ccccc1)n1ccnc1)c1cc2ccccc2o1 (centres undefined) | 4
5 | O=C(NCC(c1ccccc1)n1ccnc1)c1ccc(/C=C/c2ccccc2)cc1 (centres undefined) | 0.3
6 | COc1ccc2cc(C(=O)NCC(c3ccccc3)n3ccnc3)oc2c1 (centres undefined) | 36.9
7 | O=C(NCC(c1ccccc1)n1ccnc1)c1cc2cc([N+](=O)[O-])ccc2o1 (centres undefined) | 6.4
8 | O=C(NCC(c1ccc(F)cc1)n1ccnc1)c1cc2ccccc2o1 (centres undefined) | 2.8

Biological target: T1, 1,25-dihydroxyvitamin D(3) 24-hydroxylase, mitochondrial
Assay: Inhibition of CYP24A1
Type: ADME

Row | SMILES | IC50 [µM]
9 | O=C(NC[C@@H](c1ccccc1)n1ccnc1)c1ccc(-c2ccc(Cl)cc2)cc1 | 0.0151
